The results in this text go back to ChEMBL document CHEMBL3259698, “Reductions in log P improved protein binding and clearance predictions enabling the prospective design of cannabinoid receptor (CB1) antagonists with desired pharmacokinetic properties” (J Med Chem, 2013).

The target in one data set is Cannabinoid receptor 1 (Homo sapiens, UniProt P21554). Nature of the data set: Binding affinity to human CB1 receptor expressed in CHO cells by radioligand displacement based scintillation counting analysis. The format is cell-based.
Sequence of Cannabinoid receptor 1 (P21554 whole entry): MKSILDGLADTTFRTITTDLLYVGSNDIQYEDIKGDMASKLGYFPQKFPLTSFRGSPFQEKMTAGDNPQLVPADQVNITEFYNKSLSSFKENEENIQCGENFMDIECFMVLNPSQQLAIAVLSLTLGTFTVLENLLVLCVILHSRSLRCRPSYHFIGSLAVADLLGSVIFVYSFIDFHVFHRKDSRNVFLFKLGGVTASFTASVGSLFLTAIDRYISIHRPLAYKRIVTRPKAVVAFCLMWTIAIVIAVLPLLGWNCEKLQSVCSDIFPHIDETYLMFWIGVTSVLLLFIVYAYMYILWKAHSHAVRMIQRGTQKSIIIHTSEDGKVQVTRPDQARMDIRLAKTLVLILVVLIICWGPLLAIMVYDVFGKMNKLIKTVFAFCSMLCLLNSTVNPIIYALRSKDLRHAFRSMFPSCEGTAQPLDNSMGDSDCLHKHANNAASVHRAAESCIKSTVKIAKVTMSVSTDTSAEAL
A short description of data set [1]: Terminal half life in Sprague-Dawley rat at 3 mg/kg, iv. The format is ADME, organism-based. Also on record: dose 3 mg/kg, route intravenous. The conditions noted are these: in vivo, read-out: beta t1/2 (converted).
Data set [2] in a line: Lipophilicity, log P of the compound by HPLC analysis. It is filed as physicochemical.
A short description of data set [3]: Clearance in Sprague-Dawley rat at 3 mg/kg, iv. The conditions noted are these: in vivo.
Data set [4] deals with Rattus norvegicus. Nature of the data set: Reduction in food intake in nonfasted po dosed Sprague-Dawley rat measured for 20 hrs. The conditions noted are these: read-out: MED. The format is functional.
Another data set deals with Liver microsome. The data set can be described thus: Clearance in rat liver microsomes at 1 to 3 uM after 20 mins by LC/MS/MS analysis.
A short description of data set [5]: Aqueous solubility of the compound. It is filed as physicochemical. The conditions noted are these: buffer.
The nature of data set [6]: Fraction unbound in rat plasma at 10 uM by equilibrium dialysis method. It is filed as ADME, cell-free.
The target of the next data set is Cytochrome P450 2C19 (Homo sapiens, UniProt P33261). The data set can be described thus: Inhibition of human recombinant CYP2C19. It is filed as ADME.
Sequence of Cytochrome P450 2C19 (P33261 whole entry): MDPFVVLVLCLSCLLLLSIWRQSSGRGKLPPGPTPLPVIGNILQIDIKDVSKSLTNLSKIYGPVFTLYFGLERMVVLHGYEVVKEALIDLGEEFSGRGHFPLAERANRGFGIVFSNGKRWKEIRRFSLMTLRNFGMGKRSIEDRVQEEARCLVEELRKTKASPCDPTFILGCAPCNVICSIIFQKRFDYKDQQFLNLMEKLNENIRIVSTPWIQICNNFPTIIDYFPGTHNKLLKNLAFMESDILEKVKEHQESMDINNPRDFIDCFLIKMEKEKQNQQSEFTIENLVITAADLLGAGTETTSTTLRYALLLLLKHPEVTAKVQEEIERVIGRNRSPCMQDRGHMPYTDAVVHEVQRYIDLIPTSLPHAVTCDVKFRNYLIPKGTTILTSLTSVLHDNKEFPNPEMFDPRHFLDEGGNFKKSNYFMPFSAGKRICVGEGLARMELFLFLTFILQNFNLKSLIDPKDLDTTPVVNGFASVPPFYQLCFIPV
In data set [7] the test system is Rattus norvegicus. Nature of the data set: Reduction in food intake in nonfasted po dosed Sprague-Dawley rat measured for 8 hrs. The format is functional. The conditions noted are these: read-out: MED.
The subject of data set [8] is Rattus norvegicus. Nature of the data set: Reduction in food intake in nonfasted Sprague-Dawley rat at 3 mg/kg, po measured for 8 hrs. The format is functional. More on the design: scale not given: the % may be the effect or the level left.
A further data set concerns the target Cytochrome P450 2C9 (Homo sapiens, UniProt P11712). Nature of the data set: Inhibition of human recombinant CYP2C9. It is filed as ADME.
The target of a further data set is Cytochrome P450 3A4 (Homo sapiens, UniProt P08684). The data set can be described thus: Inhibition of human recombinant CYP3A4.
Sequence of Cytochrome P450 3A4 (P08684 whole entry): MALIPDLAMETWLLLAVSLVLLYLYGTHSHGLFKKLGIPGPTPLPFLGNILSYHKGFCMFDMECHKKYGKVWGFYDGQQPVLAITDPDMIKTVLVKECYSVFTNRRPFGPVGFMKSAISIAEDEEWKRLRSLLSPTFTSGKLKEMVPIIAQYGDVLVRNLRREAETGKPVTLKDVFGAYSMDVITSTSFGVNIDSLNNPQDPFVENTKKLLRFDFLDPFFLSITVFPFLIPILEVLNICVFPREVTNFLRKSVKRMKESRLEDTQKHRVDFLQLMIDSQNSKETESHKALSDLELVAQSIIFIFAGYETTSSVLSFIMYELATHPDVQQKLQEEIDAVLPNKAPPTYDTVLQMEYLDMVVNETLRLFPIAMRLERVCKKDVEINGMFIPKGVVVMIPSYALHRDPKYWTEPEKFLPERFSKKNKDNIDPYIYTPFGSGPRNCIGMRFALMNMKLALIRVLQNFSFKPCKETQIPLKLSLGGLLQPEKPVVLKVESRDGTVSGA
Data set [9] is described as follows: Elimination half life in iv dosed dog. The format is ADME, organism-based, Canis lupus familiaris. The conditions noted are these: in vivo, read-out: beta t1/2 (converted).
The nature of data set [10]: Elimination half life in iv dosed cynomolgus monkey. It is filed as ADME, organism-based, Macaca fascicularis. The conditions noted are these: in vivo, read-out: beta t1/2 (converted).

Values after ≈ are worked out from the molar mass of the structure shown.

Sequence of Cytochrome P450 2C9 (P11712 whole entry): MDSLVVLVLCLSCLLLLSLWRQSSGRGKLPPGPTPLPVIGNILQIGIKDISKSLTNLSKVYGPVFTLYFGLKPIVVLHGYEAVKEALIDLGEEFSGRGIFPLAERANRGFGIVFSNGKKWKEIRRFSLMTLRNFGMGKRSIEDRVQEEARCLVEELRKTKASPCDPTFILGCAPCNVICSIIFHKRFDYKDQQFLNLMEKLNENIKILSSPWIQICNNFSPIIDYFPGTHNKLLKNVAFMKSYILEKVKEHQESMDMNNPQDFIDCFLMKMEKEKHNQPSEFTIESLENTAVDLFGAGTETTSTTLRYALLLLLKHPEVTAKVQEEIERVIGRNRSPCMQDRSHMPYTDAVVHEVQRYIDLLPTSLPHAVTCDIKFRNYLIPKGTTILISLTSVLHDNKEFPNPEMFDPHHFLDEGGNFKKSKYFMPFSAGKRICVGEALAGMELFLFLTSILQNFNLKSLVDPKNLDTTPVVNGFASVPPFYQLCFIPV

Compound `O=c1n(Cc2ccc(C(F)(F)F)nc2)nc2c(-c3ccncc3)c(-c3ccc(Cl)cc3)cnn12` gave a Ki on Cannabinoid receptor 1 of 12 nM. Also, in data set [1], the half-life was 15 h. Moreover, the logP in data set [2] is 3.2. This compound also displayed a clearance in data set [3] of 0.4 mL/min/kg. Further, in the data set with Rattus norvegicus [4], the minimal effective dose turned out to be 0.3 mg/kg.

`CCCn1nc2c(-c3ccc(Cl)cc3)c(-c3ccc(C#N)cc3)c(=O)n(Cc3ccc(C(F)(F)F)nc3C)n2c1=O`: the affinity on Cannabinoid receptor 1 corresponds to a Ki of 1.7 nM. Besides, the half-life in [1] was 29 h. The compound also came in with a CLH in the data set with Liver microsome of 0.17 nmol/min/mg. In data set [2], this compound gave a logP of 5.1. Further, the clearance in [3] came to 29 mL/min/kg.

The compound `Cc1nn2c(=O)n(Cc3ccc(C(F)(F)F)nc3)nc2c(-c2ccncc2)c1-c1ccc(Cl)cc1` yielded a Ki at Cannabinoid receptor 1 of 210 nM. The compound further displayed a logP in data set [2] of 3.3.

Take `COc1nn2c(=O)n(Cc3ccc(C(F)(F)F)nc3)nc2c(-c2ccncc2)c1-c1ccc(Cl)cc1`: the affinity on Cannabinoid receptor 1, expressed as Ki, was 10 nM. Also, in [1], the half-life was 17 h. Besides, in data set [2], the logP turned out to be 3.7. For the same compound, the minimal effective dose in the data set with Rattus norvegicus [4] came to 3 mg/kg.

In turn, `O=c1[nH]n2c(=O)n(Cc3ccc(C(F)(F)F)nc3)nc2c(-c2ccncc2)c1-c1ccc(Cl)cc1` displayed an inhibition constant Ki at Cannabinoid receptor 1 of 4000 nM. In data set [2], this compound returned a logP of 2.5.

In turn, `Cn1c(=O)c(-c2ccc(Cl)cc2)c(-c2ccncc2)c2nn(Cc3ccc(C(F)(F)F)nc3)c(=O)n21` returned a Ki on Cannabinoid receptor 1 of 18 nM. Besides, the half-life in data set [1] was 35 h. Besides, in data set [2], the logP stood at 3.5. This compound also came in with a solubility in data set [5] of 1 µg/mL (≈ 1.95 µM). In addition, the minimal effective dose in the data set on Rattus norvegicus [4] was 1 mg/kg.

Regarding `N#Cc1ccc(Cn2nc3c(-c4ccncc4)c(-c4ccc(Cl)cc4)c(=O)n(Cc4ccc(C#N)cc4)n3c2=O)cc1`, the inhibitory constant (Ki) on Cannabinoid receptor 1 turned out to be 4.2 nM.

`Cn1nc2c(-c3ccncc3)c(-c3ccc(Cl)cc3)c(=O)n(Cc3ccc(C#N)cc3)n2c1=O` had a Ki at Cannabinoid receptor 1 of 214 nM.

The compound `Cn1nc2c(-c3ccc(Cl)cc3)c(-c3ccncc3)c(=O)n(Cc3ccc(C#N)cc3)n2c1=O` yielded a Ki at Cannabinoid receptor 1 of 29 nM. For the same compound, in [1], the half-life is 3.5 h. The compound further had a logP in data set [2] of 3. Further, in data set [6], the fraction unbound at 10 µM stood at 0.05.

`Cn1nc2c(-c3ccc(Cl)cc3)c(-c3ccncc3)c(=O)n(Cc3ccc(C(F)(F)F)nc3)n2c1=O` returned a Ki on Cannabinoid receptor 1 of 28 nM. The half-life in data set [1] was 6 h. Besides, the IC50 amounted to 4300 nM on Cytochrome P450 2C19 and 1900 nM on Cytochrome P450 2C9. Moreover, the minimal effective dose in the data set with Rattus norvegicus [7] was 3 mg/kg. The compound further registered an Activity in the data set with Rattus norvegicus [8] of 21%. In data set [5], this compound came in with a solubility of 40 µg/mL (≈ 78 µM).

As to `Cc1nc(C(F)(F)F)ccc1Cn1c(=O)c(-c2ccncc2)c(-c2ccc(Cl)cc2)c2nn(C)c(=O)n21`, at Cannabinoid receptor 1, the Ki amounted to 9 nM. For the same compound, the half-life in [1] is 3.3 h. In addition, the IC50 at Cytochrome P450 2C19 was 700 nM; at Cytochrome P450 2C9, 2900 nM; on Cytochrome P450 3A4 it was 6800 nM. The minimal effective dose in the data set on Rattus norvegicus [7] stood at 3 mg/kg. Also, in the data set with Rattus norvegicus [8], the Activity worked out at 33%. This compound registered a clearance in data set [3] of 6.3 mL/min/kg.

On to `CCn1nc2c(-c3ccc(Cl)cc3)c(-c3ccncc3)c(=O)n(Cc3ccc(C(F)(F)F)nc3)n2c1=O`, for which the Ki on Cannabinoid receptor 1 came to 15 nM. The half-life in data set [1] was 2.4 h. The results for the IC50 on Cytochrome P450 2C19, at Cytochrome P450 2C9 and on Cytochrome P450 3A4 were 11000 nM, 4900 nM and 18000 nM, respectively. For the same compound, in data set [2], the logP stood at 4. In addition, in [3], the clearance worked out at 37 mL/min/kg.

At Cannabinoid receptor 1, `CCn1nc2c(-c3ccc(Cl)cc3)c(-c3ccncc3C)c(=O)n(Cc3ccc(C(F)(F)F)nc3C)n2c1=O` displayed a Ki of 8.4 nM. The IC50 was 32000 nM at Cytochrome P450 2C19, 5000 nM on Cytochrome P450 2C9 and over 40000 nM at Cytochrome P450 3A4. In data set [2], this compound had a logP of 4.2.

For the compound `CCn1nc2c(-c3ccc(Cl)cc3)c(-c3ccc(C#N)cc3)c(=O)n(Cc3ccc(C(F)(F)F)nc3C)n2c1=O`, the Ki on Cannabinoid receptor 1 was found to be 1.4 nM. The half-life was 7 h in [1], 70 h in data set [9] and 40 h in data set [10]. Also, the IC50 at Cytochrome P450 2C19, on Cytochrome P450 2C9 and at Cytochrome P450 3A4 was over 40000 nM throughout. Also, the logP in data set [2] is 4.6. In addition, the concentration in solution in data set [5] (solubility) was 3 µg/mL (≈ 5.31 µM).
